Results as given in PMC12616683, “In Vivo Atlas of Neuroprotective Cyclic Dipeptides Derived from Food Gelatin Using Peptidomics and Feature-Based Molecular Networking” (Journal of Agricultural and Food Chemistry, 2025).
Square brackets hold non-standard residues; d marks the D form. Peptide text beside a SMILES is read from it. pGlu = O=C1CC[CH](C(=O)O)N1

Assay: FBMN analysis of short peptides in small intestine contents and serum after oral DHG
Conditions: for Peptide signal (feature intensity) in the small intestine, 30 min / Peptide signal (feature intensity) in the small intestine, 60 min / Peptide signal (feature intensity) in the small intestine, 120 min / Peptide signal (feature intensity) in the small intestine, 240 min: small intestine contents, C57 mice, FBMN feature intensity, peptides smaller than 690 Da; for Peptide signal (feature intensity) in the small intestine, 30 min: 30 min after oral DHG; for Peptide signal (feature intensity) in the small intestine, 60 min: 60 min after oral DHG; for Peptide signal (feature intensity) in the small intestine, 120 min: 120 min after oral DHG; for Peptide signal (feature intensity) in the small intestine, 240 min: 240 min after oral DHG; for time detected in serum (FBMN): time points 0.5-4 h after oral DHG

| SMILES | Peptide signal (feature intensity) in the small intestine, 30 min | Peptide signal (feature intensity) in the small intestine, 60 min | Peptide signal (feature intensity) in the small intestine, 120 min | Peptide signal (feature intensity) in the small intestine, 240 min | time detected in serum (FBMN) |
| --- | --- | --- | --- | --- | --- |
| CC(C)C[C@@H]1NC(=O)[C@H](Cc2ccccc2)NC1=O [cyclo(Leu-Phe)] | – | – | – | – | 0.5 to 4 h |
| O=C1CNC(=O)C(Cc2ccccc2)N1 [cyclo(glycinyl-L-phenylalanine)] | 1.21E+06 | 0.00E+00 | 9.00E+05 | 4.18E+05 | – |
| CC(C)CC1NC(=O)C(Cc2ccccc2)NC1=O (stereo not drawn) [cyclo(Phe-Leu)] | 1.01E+05 | 0.00E+00 | 8.22E+05 | 4.33E+05 | – |
| N[C@@H](Cc1c[nH]c2ccccc12)C(=O)N[C@@H](CCC(=O)O)C(=O)O [Trp-Glu] (H-Trp-Glu-OH) | 0.00E+00 | 0.00E+00 | 0.00E+00 | 1.26E+07 | – |
| N[C@@H](Cc1ccccc1)C(=O)N[C@@H](CCC(=O)O)C(=O)O [Phe-Glu] (H-Phe-Glu-OH) | 1.31E+07 | 3.77E+06 | 0.00E+00 | 0.00E+00 | – |
| N[C@@H](Cc1c[nH]c2ccccc12)C(=O)NCC(=O)O [Trp-gly] (H-Trp-Gly-OH) | 0.00E+00 | 0.00E+00 | 0.00E+00 | 6.50E+05 | – |
| CC(C)[C@H](NC(=O)[C@@H]1CCC(=O)N1)C(=O)O [PyroGlu-Val] (HELM PEPTIDE1{[Glp].V}$$$$V2.0) | 0.00E+00 | 7.64E+06 | 0.00E+00 | 1.03E+07 | – |
| CCC(C)C(N)C(=O)N1CCCC1C(=O)O (stereo not drawn) [Ile-Pro] (H-Ile-Pro-OH; configuration not given here) | 1.26E+07 | 6.59E+06 | 1.48E+07 | 2.26E+07 | – |
| N[C@@H](CC(=O)O)C(=O)N[C@@H](Cc1ccccc1)C(=O)O [Asp-Phe] (H-Asp-Phe-OH) | 3.76E+07 | 6.08E+07 | 1.22E+08 | 1.29E+08 | only detected in the first hour |
| CC(C)[C@H](NC(=O)[C@@H](N)CCC(=O)O)C(=O)N[C@@H](Cc1ccccc1)C(=O)O [Glu-Val-Phe] (H-Glu-Val-Phe-OH) | 2.73E+05 | 1.52E+05 | 4.18E+05 | 1.30E+06 | – |
| N[C@@H](CCC(=O)O)C(=O)N[C@@H](Cc1ccc(O)cc1)C(=O)O [Glu-Tyr] (H-Glu-Tyr-OH) | 6.78E+05 | 4.16E+05 | 0.00E+00 | 1.73E+06 | – |
| NC(Cc1ccccc1)C(=O)N1CCCC1C(=O)O (stereo not drawn) [Phe-Pro] (H-Phe-Pro-OH; configuration not given here) | 1.25E+06 | 7.11E+05 | 1.63E+06 | 3.02E+06 | – |
| O=C1CCC(C(=O)NC(Cc2ccc(O)cc2)C(=O)O)N1 (stereo not drawn) [PyroGlu-Tyr] ([pGlu]-Tyr-OH; configuration not given here) | 0.00E+00 | 2.55E+07 | 0.00E+00 | 1.33E+07 | – |
| NC(Cc1ccc(O)cc1)C(=O)NC(Cc1ccc(O)cc1)C(=O)O (stereo not drawn) [Tyr-Tyr] (H-Tyr-Tyr-OH; configuration not given here) | 2.40E+05 | 1.86E+06 | 0.00E+00 | 0.00E+00 | – |
| NC(=O)C[C@H](N)C(=O)N[C@@H](Cc1ccccc1)C(=O)O [Asn-Phe] (H-Asn-Phe-OH) | 2.16E+06 | 2.86E+06 | 5.41E+06 | 4.96E+06 | – |
| NC(=O)CC[C@H](NC(=O)[C@@H](N)Cc1ccccc1)C(=O)O [Phe-Gln] | 0.00E+00 | 1.71E+05 | 3.17E+05 | 2.35E+05 | – |

Next, values leading:

| Peptide signal (feature intensity) in the small intestine, 30 min | Peptide signal (feature intensity) in the small intestine, 60 min | Peptide signal (feature intensity) in the small intestine, 120 min | Peptide signal (feature intensity) in the small intestine, 240 min | time detected in serum (FBMN) | SMILES |
| --- | --- | --- | --- | --- | --- |
| 0.00E+00 | 4.45E+06 | 0.00E+00 | 8.43E+06 | – | CC(C)C[C@H](NC(=O)[C@@H](N)[C@@H](C)O)C(=O)O [Thr-Leu] (H-Thr-Leu-OH) |
| 1.38E+06 | 1.78E+06 | 0.00E+00 | 0.00E+00 | – | CC(C)[C@H](N)C(=O)N[C@@H](Cc1ccccc1)C(=O)O [Val-Phe] (H-Val-Phe-OH) |
| 1.85E+06 | 1.64E+06 | 0.00E+00 | 0.00E+00 | – | CC(C)C[C@H](N)C(=O)N[C@@H](C)C(=O)O [Leu-ala] (H-Leu-Ala-OH) |
| 4.20E+05 | 8.21E+05 | 0.00E+00 | 0.00E+00 | – | CC[C@H](C)[C@H](N)C(=O)N[C@@H](Cc1ccc(O)cc1)C(=O)O [Ile-Tyr] (H-Ile-Tyr-OH) |
| 4.22E+06 | 7.59E+06 | 0.00E+00 | 0.00E+00 | – | CC(C)CC(N)C(=O)NC(C(=O)O)C(C)C (stereo not drawn) [Leu-Val] (H-Leu-Val-OH; configuration not given here) |
| 2.96E+06 | 1.48E+06 | 0.00E+00 | 0.00E+00 | – | CC(C)[C@H](NC(=O)[C@@H](N)Cc1ccc(O)cc1)C(=O)O [Tyr-Val] (H-Tyr-Val-OH) |
| 7.93E+06 | 7.66E+06 | 0.00E+00 | 0.00E+00 | – | CC[C@H](C)[C@H](N)C(=O)N[C@@H](CC(N)=O)C(=O)O [Ile-Asn] (H-Ile-Asn-OH) |
| 2.28E+06 | 2.16E+06 | 0.00E+00 | 0.00E+00 | – | CC(C)CC(NC(=O)C(N)Cc1ccc(O)cc1)C(=O)O (stereo not drawn) [Tyr-Leu] (H-Tyr-Leu-OH; configuration not given here) |
| 0.00E+00 | 0.00E+00 | 5.98E+05 | 1.03E+06 | – | CSCCC(N)C(=O)NC(C(=O)O)C(C)C (stereo not drawn) [Met-Val] (H-Met-Val-OH; configuration not given here) |
| 1.12E+06 | 1.09E+06 | 0.00E+00 | 0.00E+00 | – | CC(C)C(NC(=O)C(N)Cc1ccccc1)C(=O)O (stereo not drawn) [Phe-Val] (H-Phe-Val-OH; configuration not given here) |
| 5.29E+05 | 1.54E+05 | 0.00E+00 | 1.07E+06 | – | CC(C)CC(NC(=O)C(NC(=O)C(N)C(C)O)C(C)C)C(=O)O (stereo not drawn) [Thr-Val-Leu] (H-Thr-Val-Leu-OH; configuration not given here) |
| 0.00E+00 | 3.54E+06 | 0.00E+00 | 2.70E+06 | – | CC(C)[C@H](NC(=O)CN)C(=O)O [Gly-Val] (H-Gly-Val-OH) |
| 5.52E+06 | 1.24E+07 | 0.00E+00 | 0.00E+00 | – | CC(C)[C@H](N)C(=O)N[C@H](C(=O)O)C(C)C [Val-Val] (H-Val-Val-OH) |
